These results are taken from patent EP0816362A1, “THIAZOLE DERIVATIVES” (TAISHO PHARMACEUTICAL CO. LTD, priority 1995, dated 1996).

As usually defined, the IC50 is the concentration needed to halve the response being measured. Read a low IC50 as greater potency.

Each structure is given as a SMILES string.

In one data set the target is T1, human D4.2 receptor (Homo sapiens, UniProt P21917, DEL265-296).
T1 sequence (P21917 with tags, fused parts or gaps DEL265-296): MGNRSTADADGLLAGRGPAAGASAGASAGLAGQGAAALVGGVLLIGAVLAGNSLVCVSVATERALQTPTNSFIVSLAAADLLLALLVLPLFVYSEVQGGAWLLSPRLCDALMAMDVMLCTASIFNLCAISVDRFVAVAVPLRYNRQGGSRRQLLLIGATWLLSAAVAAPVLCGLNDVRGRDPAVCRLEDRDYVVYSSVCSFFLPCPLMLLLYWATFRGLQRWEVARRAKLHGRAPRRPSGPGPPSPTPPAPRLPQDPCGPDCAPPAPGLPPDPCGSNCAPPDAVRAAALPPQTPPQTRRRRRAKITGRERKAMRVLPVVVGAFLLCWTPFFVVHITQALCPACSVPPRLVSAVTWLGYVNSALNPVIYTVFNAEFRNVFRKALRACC
Put plainly: Dopamine D4 receptor binding experiment ([3H]-spiperone). The following applies: CHO cell membranes expressing human D4.2 receptor, [3H]-spiperone (0.5 nM), 27°C, 2 hours. Here is the method:
As a receptor preparation, Chinese hamster ovary (CHO) cell membranes where human D4.2 receptor was expressed were used.
As [^3H]-labeled ligand, [^3H]-spiperone was used.
Human D4.2 receptor binding test: CHO cell membranes where human D4.2 receptor was expressed, [^3H]-spiperone (0.5 nM) and a test drug were reacted at 27°C for 2 hours in 50 mM Tris-HCl buffer, pH 7.4 containing 5 mM EDTA, 1.5 mM calcium chloride, 5 mM potassium chloride and 120 mM sodium chloride.
After the reaction, the sample was filtered under suction through a glass filter (GF/B), and the radioactivity of the filter paper was determined in a liquid scintillation spectrometer.
The binding of [^3H]-spiperone in the presence of 10 µM haloperidol was assumed to be non-specific binding, and the difference between the total binding and the non-specific binding was assumed to be specific binding.
In the case of `Nc1nc(-c2ccc(F)cc2)c(CCN2CCC(Cc3ccccc3)CC2)s1` [Compound K-04], the IC50 stood at 46.4 nM.
`Cc1nc(-c2ccc(F)cc2)c(C2CCN(CCCC(=O)c3ccc(F)cc3)C2)s1` (racemic) [Compound D-15] showed an IC50 of 4.13 nM.
Same read-out and setting: for `Nc1nc(-c2ccc(F)cc2)c(C2CCN(CCCN3C(=O)Cc4cc(F)ccc43)C2)s1` (stereo not shown) [Compound H-08] the value was 46.4 nM; for `Nc1nc(-c2ccc(F)cc2)c(C2CCN(CCCN3C(=O)CCc4ccccc43)C2)s1` (stereo not shown) [Compound H-02], 81.1 nM; for `Nc1nc(-c2ccc(F)cc2)c(C2CCN(CCCN3C(=O)CCc4cc(F)ccc43)C2)s1` (stereo not shown) [Compound H-04], 46.4 nM.
Take `Cc1ccc(-c2nc(C)sc2CCN2CCC(C(=O)c3ccc(F)cc3)CC2)cc1` [Compound K-29]: the IC50 came out at 2.36 nM.
On to `Cc1nc(-c2ccc(F)cc2)c(CCN2CCC(C(=O)c3ccc(F)cc3F)CC2)s1` [Compound K-23], for which the IC50 came to 11.5 nM.
Same read-out and setting: for `Nc1nc(-c2ccc(F)cc2)c(C2CCN(CCCC(=O)c3ccccc3)C2)s1` (racemic) [Compound D-06] the value was 38.5 nM; for `Nc1nc(-c2ccc(F)cc2)c(C2CCN(CCC=C(c3ccc(F)cc3)c3ccc(F)cc3)C2)s1` (racemic) [Compound C-03], 29.2 nM.
The same measure, in the same setting: for `Nc1nc(-c2ccc(F)cc2)c(C2CCN(CCCC(c3ccc(F)cc3)c3ccc(F)cc3)C2)s1` (racemic) [Compound B-19] the value was 55.9 nM.
For the molecule `Cc1nc(-c2ccc(Cl)cc2)c(CCN2CCC(C(=O)c3ccc(F)cc3)CC2)s1` [Compound K-26], the half-maximal inhibitory concentration (IC50) was 4.53 nM.
For the molecule `Nc1nc(-c2ccc(F)cc2)c(C2CCN(CCCc3noc4cc(F)ccc34)C2)s1` (single isomer, unassigned) [Compound F-07], the half-maximal inhibitory concentration (IC50) is 11.8 nM.
Still for that read-out and setting: for `COc1ccc(C(=O)C2CCN(CCc3sc(C)nc3-c3ccc(F)cc3)CC2)cc1` [Compound K-22] the value was 38.5 nM; for `Cc1nc(-c2ccc(F)cc2)c(CCN2CCC(C(=O)c3ccc(Cl)cc3)CC2)s1` [Compound K-20], 5.46 nM.
For the molecule `CNc1nc(-c2ccc(F)cc2)c(C2CCN(CCCC(=O)c3ccc(F)cc3)C2)s1` (racemic) [Compound D-13], the IC50 worked out at 12.6 nM.
Same read-out and setting: as for `Cc1ccc(C(=O)C2CCN(CCc3sc(C)nc3-c3ccc(F)cc3)CC2)cc1` [Compound K-25], the figure is 5.46 nM.
With `Nc1nc(-c2ccc(F)cc2)c(C2CCN(CCCc3noc4cc(F)ccc34)C2)s1` (stereo not shown) [Compound E-02, 2-amino-4-(4-fluorophenyl)-5-[1-[3-(6-fluoro-1,2-benzisoxazol-3-yl)propyl]pyrrolidin-3-yl]thiazole], the half-inhibitory concentration (IC50) worked out at 10.5 nM.
Still for that read-out and setting: as for `Nc1nc(-c2ccc(F)cc2)c(CCN2CCC(C(=O)c3ccc(Br)cc3)CC2)s1` [Compound K-15], the figure is 35.1 nM; as for `Nc1nc(-c2ccc(F)cc2)c(C2CCN(CCCc3nsc4ccccc34)C2)s1` (stereo not shown) [Compound E-10], 13.9 nM.
Same read-out and setting: as for `Cc1nc(-c2ccc(Br)cc2)c(CCN2CCC(C(=O)c3ccc(F)cc3)CC2)s1` [Compound K-27], the figure is 4.98 nM.

The same data set, now with this note: inhibition of [3H]-spiperone binding, human D4.2 receptor.
`Cc1ccc(-c2nc(N)sc2CCN2CCC(=Cc3ccc(F)cc3)CC2)cc1` [Compound L-06] had an IC50 of 4.13 nM.
As for `COc1ccc(C=C2CCN(CCc3sc(N)nc3-c3ccc(F)cc3)CC2)cc1` [Compound L-10], the IC50 was determined as 29.2 nM.
On the same count and under the same terms, as for `Nc1nc(-c2ccc(F)cc2)c(CCN2CCC(=Cc3ccccc3)CC2)s1` [Compound L-14], the figure is 3.76 nM; as for `O=C(c1ccc(F)cc1)C1CCN(CCc2scnc2-c2ccc(F)cc2)CC1` [Compound K-33], 2.36 nM; as for `Cc1nc(-c2ccc(Cl)cc2)c(CCN2CCC(=Cc3ccc(F)cc3)CC2)s1` [Compound L-18], 9.55 nM.
The same measure, in the same setting: as for `Fc1ccc(C=C2CCN(CCc3scnc3-c3ccc(F)cc3)CC2)cc1` [Compound L-32], the figure is 6.58 nM; as for `Nc1nc(-c2ccc(F)cc2)c(CCN2CCC(=Cc3ccc(Cl)cc3)CC2)s1` [Compound L-08], 73.9 nM; as for `Cc1nc(-c2ccc(F)cc2)c(CCN2CCC(=Cc3ccccc3F)CC2)s1` [Compound L-28], 5.99 nM.
Same read-out and setting: for `CC(=C1CCN(CCc2sc(C)nc2-c2ccc(F)cc2)CC1)c1ccc(F)cc1` [Compound L-31] the value was 16.7 nM.

Tested on in the next data set: not given
Assay: not given
The following applies: Summary and Clinical Data, Sandoz, Canada Inc. (1990); a case of death also reported; cited from earlier work.
On to `CN1CCN(C2=Nc3cc(Cl)ccc3Nc3ccccc32)CC1` [clozapine], for which the blood disorder result was “agranulocytosis”.

Staying with this data set, now noted: clinical experiments, compared with dopamine D2 receptor antagonist; cited from earlier work.
Take `CN1CCN(C2=Nc3cc(Cl)ccc3Nc3ccccc32)CC1` [clozapine]: the extrapyramidal disorder result is reported as “less extrapyramidal disorder”.
